Test results: the supplement of paper PMC13380429

Key:
Conditions in all cases: 72 h
U2OS [1] = experiment: drug sensitivity score (DSS) for viability; higher = more toxic; extreme values may be limits of the assay
Vero E6 [2] = experiment: as above
Calu-3 [3] = experiment: as above
HepG2 [4] = experiment: as above
Caco-2 [5] = experiment: as above
U2OS [6] = experiment: cell viability relative to DMSO; higher = less toxic
Vero E6 [7] = experiment: as above
Calu-3 [8] = experiment: as above
HepG2 [9] = experiment: as above
Caco-2 [10] = experiment: as above
U2OS [11] = experiment: relative viability EC50 (midpoint between 100% and the lowest measured viability); higher = less toxic
Vero E6 [12] = experiment: as above
Calu-3 [13] = experiment: as above
HepG2 [14] = experiment: as above
Caco-2 [15] = experiment: as above

| SMILES | drug sensitivity score (U2OS [1]) | drug sensitivity score (Vero E6 [2]) | drug sensitivity score (Calu-3 [3]) | drug sensitivity score (HepG2 [4]) | drug sensitivity score (Caco-2 [5]) | cell viability (U2OS [6]; 1 nM) | cell viability (U2OS [6]; 10 nM) | cell viability (U2OS [6]; 100 nM) | cell viability (U2OS [6]; 1000 nM) | cell viability (U2OS [6]; 10000 nM) | cell viability (Vero E6 [7]; 1 nM) | cell viability (Vero E6 [7]; 10 nM) | cell viability (Vero E6 [7]; 100 nM) | cell viability (Vero E6 [7]; 1000 nM) | cell viability (Vero E6 [7]; 10000 nM) | cell viability (Calu-3 [8]; 1 nM) | cell viability (Calu-3 [8]; 10 nM) | cell viability (Calu-3 [8]; 100 nM) | cell viability (Calu-3 [8]; 1000 nM) | cell viability (Calu-3 [8]; 10000 nM) | cell viability (HepG2 [9]; 1 nM) | cell viability (HepG2 [9]; 10 nM) | cell viability (HepG2 [9]; 100 nM) | cell viability (HepG2 [9]; 1000 nM) | cell viability (HepG2 [9]; 10000 nM) | cell viability (Caco-2 [10]; 1 nM) | cell viability (Caco-2 [10]; 10 nM) | cell viability (Caco-2 [10]; 100 nM) | cell viability (Caco-2 [10]; 1000 nM) | cell viability (Caco-2 [10]; 10000 nM) | relative viability EC50 (U2OS [11]) | relative viability EC50 (Vero E6 [12]) | relative viability EC50 (Calu-3 [13]) | relative viability EC50 (HepG2 [14]) | relative viability EC50 (Caco-2 [15]) |
| --- | --- | --- | --- | --- | --- | --- | --- | --- | --- | --- | --- | --- | --- | --- | --- | --- | --- | --- | --- | --- | --- | --- | --- | --- | --- | --- | --- | --- | --- | --- | --- | --- | --- | --- | --- |
| O=C1N=C(NCc2cccs2)S/C1=C\c1ccc2ncccc2c1 [Ro-3306] | 0.7 | 1.1 | 0 | 9.2 | 1 | 97.9% | 98.5% | 97.1% | 98.3% | 81.1% | 97% | 97.4% | 98.5% | 93.8% | 80.9% | 101% | 113% | 94% | 103% | 104% | 93.2% | 77.7% | 90.2% | 62.2% | 51% | 89.1% | 105% | 97.2% | 100% | 74.2% | > 10 µM | > 10 µM | > 10 µM | – | – |
| COc1cc2c(cc1OC)CN(C(=O)/C=C/c1c(-c3ccccc3)n(C)c3ncccc13)CC2 [SIS3] | 0 | 0 | – | 0 | 1.8 | 99% | 101% | 94.9% | 99.9% | 96.2% | 100% | 93.3% | 98.8% | 98.2% | 100% | – | – | – | – | – | 98.9% | 106% | 106% | 106% | 106% | 93.9% | 94.5% | 88.8% | 96.5% | 71.1% | > 10 µM | > 10 µM | – | > 10 µM | – |
| Cc1c(C(=O)NCCCO)cnn1-c1nc(-c2cccc(C(F)(F)F)c2)cs1 | 0.5 | 0 | 0 | 2.1 | 1.4 | 101% | 103% | 93.3% | 98.1% | 83.9% | 98.1% | 95.9% | 102% | 97.7% | 90.3% | 107% | 102% | 112% | 104% | 94.3% | 99.3% | 91.1% | 96% | 106% | 52.9% | 93.5% | 91.4% | 96.1% | 102% | 67.1% | > 10 µM | > 10 µM | > 10 µM | – | – |
| COC(=O)C1=C(C)NC(C)=C(C(=O)OC(C)C)[C@@H]1c1cccc2nonc12 [isradipine] | 0 | – | 0 | 0 | 0 | 103% | 97.9% | 104% | 102% | 98.5% | – | – | – | – | – | 101% | 98.9% | 91.7% | 97.9% | 95.2% | 98.9% | 103% | 105% | 106% | 95.9% | 107% | 96.2% | 99.3% | 93.5% | 94.2% | > 10 µM | – | > 10 µM | > 10 µM | > 10 µM |
| Cc1ccc(S(=O)(=O)NCl)cc1 [chloramine-T] | 0 | – | 0 | 0 | 0 | 105% | 97.7% | 105% | 99.1% | 99.4% | – | – | – | – | – | 102% | 107% | 92.2% | 101% | 92.6% | 101% | 98.5% | 104% | 102% | 102% | 99.5% | 104% | 92.2% | 101% | 99.2% | > 10 µM | – | > 10 µM | > 10 µM | > 10 µM |
| O=C(NCC(=O)N1CCCC1)Nc1ccc2cnccc2c1 [SGC-707] | 0 | – | 0 | 0 | 0 | 99.2% | 93% | 103% | 97.3% | 96.8% | – | – | – | – | – | 94.2% | 95.8% | 105% | 86.2% | 110% | 93.6% | 117% | 98.4% | 103% | 97.3% | 98.1% | 97% | 95.7% | 100% | 93.1% | > 10 µM | – | > 10 µM | > 10 µM | > 10 µM |
